The values below come from ChEMBL document CHEMBL1126109 (J Med Chem, 1992).

Holding throughout (format): protein-complex assay
The target of assay [1] is Glutamate NMDA receptor. The assay is described as follows: Compound was evaluated for the inhibition of [3H]MK-801 binding at N-methyl-D-aspartate glutamate receptor.
Assay [2] deals with Glutamate NMDA receptor. Description: Compound was evaluated for the inhibition of [3H]-CGS-19,755 binding at N-methyl-D-aspartate glutamate receptor.
In assay [3] the target is Glutamate NMDA receptor. Description: Compound was evaluated for the inhibition of [3H]norepinephrine binding at N-methyl-D-aspartate glutamate receptor.

For orientation: EC50 means the midpoint of the concentration-response curve. The IC50 is the concentration that gives 50% inhibition. Low readings indicate greater potency in that assay, high ones weaker potency in that assay. Turning to `N[C@]1(C(=O)O)C[C@@H](C(=O)O)C1`, the EC50 is 0.18 µM in assay [1] and 16.5 µM in assay [3]. Moreover, in assay [2], the IC50 came out at 0.163 µM.

Turning to `NC(C(=O)O)c1nnn[nH]1` (racemic), the EC50 in assay [1] was found to be 0.07 µM; in assay [3] it was 2.03 µM. The IC50 in assay [2] came to 0.098 µM.

In the case of `N[C@@H](CC(=O)O)C(=O)O` [ASPARTIC ACID], the IC50 in assay [2] came to 1.64 µM. This counts as single-digit micromolar.

Regarding `CN[C@H](CC(=O)O)C(=O)O` [N-METHYL-D-ASPARTIC ACID (NMDA)], the concentration for a half-maximal effect (EC50) in assay [1] was 6.86 µM; in assay [3], 75 µM. This compound yielded an IC50 in assay [2] of 4.15 µM.
